Like-named read-outs stand apart in the source and are kept apart here.
Columns and labels:
Format in all cases: biochemical
human Lck enzyme = target: T1, human Lck enzyme (Homo sapiens, UniProt P06239); assay: Lck enzyme inhibitory activity (time-resolved fluorometry, biotinylated peptide phosphorylation); conditions: read-out: LCK_IC50
T1 construct: purchased Carna Biosciences, Inc. 08-170
Method in brief: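 Readout pairs a europium cryptate-labelled anti-phosphotyrosine antibody with XL665-streptavidin, measured by time-resolved fluorescence. IC50 derived from percent inhibition against untreated controls.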

human Yes1 enzyme = target: T2, human Yes1 enzyme (Homo sapiens, UniProt P07947); assay: Yes1 enzyme inhibitory activity (time-resolved fluorometry, biotinylated peptide phosphorylation); conditions: read-out: YES_IC50
T2 construct: made in house
Method in brief: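 Inhibition was expressed against a compound-free control to give IC50, using TR-FRET read-out (Eu-cryptate anti-pTyr antibody, streptavidin-XL665).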

human Src enzyme = target: T3, human Src enzyme (Homo sapiens, UniProt P12931); assay: Src enzyme inhibitory activity (time-resolved fluorometry, biotinylated peptide phosphorylation); conditions: read-out: SRC_IC50
T3 construct: purchased Carna Biosciences, Inc. 08-173
Method in brief: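 Compounds were tested for blocking tyrosine phosphorylation of a biotinylated peptide substrate by recombinant human Src. Phosphorylated product was quantified by time-resolved fluorometry using europium cryptate and XL665 conjugates, and IC50 was calculated against the compound-free control.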

[1] = biotinylated peptide phosphorylation

T1 sequence (P06239 whole entry): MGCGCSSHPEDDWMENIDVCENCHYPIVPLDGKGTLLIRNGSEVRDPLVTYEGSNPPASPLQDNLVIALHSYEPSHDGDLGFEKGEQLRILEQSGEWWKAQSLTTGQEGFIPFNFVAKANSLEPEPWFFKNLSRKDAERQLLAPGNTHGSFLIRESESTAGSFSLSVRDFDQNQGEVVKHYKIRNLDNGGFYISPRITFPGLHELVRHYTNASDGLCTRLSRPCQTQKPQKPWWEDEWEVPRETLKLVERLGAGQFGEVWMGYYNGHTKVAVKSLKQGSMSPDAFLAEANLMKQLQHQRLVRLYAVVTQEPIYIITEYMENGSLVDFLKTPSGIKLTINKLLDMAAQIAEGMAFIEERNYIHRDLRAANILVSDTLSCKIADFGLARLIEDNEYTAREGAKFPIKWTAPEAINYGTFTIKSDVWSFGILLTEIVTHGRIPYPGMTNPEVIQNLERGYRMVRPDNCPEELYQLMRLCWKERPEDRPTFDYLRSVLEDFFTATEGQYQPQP
T3 sequence (P12931 whole entry): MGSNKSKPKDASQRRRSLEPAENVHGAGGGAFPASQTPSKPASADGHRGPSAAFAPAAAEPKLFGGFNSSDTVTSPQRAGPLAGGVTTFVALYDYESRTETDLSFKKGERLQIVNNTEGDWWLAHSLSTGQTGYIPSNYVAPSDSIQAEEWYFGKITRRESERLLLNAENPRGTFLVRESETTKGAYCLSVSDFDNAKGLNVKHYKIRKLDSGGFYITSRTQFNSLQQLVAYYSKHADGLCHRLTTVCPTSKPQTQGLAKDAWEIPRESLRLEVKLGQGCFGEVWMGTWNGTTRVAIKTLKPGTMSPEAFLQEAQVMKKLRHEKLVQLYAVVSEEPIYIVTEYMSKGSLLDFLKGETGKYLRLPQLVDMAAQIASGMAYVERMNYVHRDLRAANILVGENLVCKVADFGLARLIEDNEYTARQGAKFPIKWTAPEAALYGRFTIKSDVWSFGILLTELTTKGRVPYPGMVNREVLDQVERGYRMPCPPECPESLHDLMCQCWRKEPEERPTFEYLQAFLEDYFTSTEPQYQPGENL
T2 sequence (P07947 whole entry): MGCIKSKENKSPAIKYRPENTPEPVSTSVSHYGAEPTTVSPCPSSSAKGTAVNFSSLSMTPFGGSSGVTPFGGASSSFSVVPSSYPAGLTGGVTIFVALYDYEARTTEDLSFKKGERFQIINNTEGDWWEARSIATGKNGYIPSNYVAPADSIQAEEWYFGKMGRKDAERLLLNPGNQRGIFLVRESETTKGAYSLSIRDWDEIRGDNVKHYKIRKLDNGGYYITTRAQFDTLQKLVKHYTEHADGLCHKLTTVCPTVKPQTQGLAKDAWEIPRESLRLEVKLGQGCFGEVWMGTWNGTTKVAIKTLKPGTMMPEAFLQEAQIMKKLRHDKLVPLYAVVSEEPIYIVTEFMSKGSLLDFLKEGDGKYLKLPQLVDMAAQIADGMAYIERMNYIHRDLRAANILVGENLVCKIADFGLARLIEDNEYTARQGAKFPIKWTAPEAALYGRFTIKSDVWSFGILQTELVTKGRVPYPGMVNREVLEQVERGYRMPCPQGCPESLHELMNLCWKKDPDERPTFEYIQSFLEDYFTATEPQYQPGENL

| Compound | IC50 (human Lck enzyme) [nM] | IC50 (human Yes1 enzyme) [nM] | IC50 (human Src enzyme) [nM] | IC50 (human Lck enzyme; [1]) [nM] | IC50 (human Yes1 enzyme; [1]) [nM] | IC50 (human Src enzyme; [1]) [nM] |
| --- | --- | --- | --- | --- | --- | --- |
| Cc1cc(Oc2c(F)cccc2F)ncc1-n1ncc(C(=O)c2cc3cc(OCC(F)F)c(NS(=O)(=O)c4cccc(Cl)c4)cc3[nH]2)c1N [Example 5-1-383, N-[2-[5-amino-1-[6-(2,6-difluorophenoxy)-4-methylpyridin-3-yl]pyrazole-4-carbonyl]-5-(2,2-difluoroethoxy)-1H-indol-6-yl]-3-chlorobenzenesulfonamide] | 270 | 9.2 | 630 |  |  |  |
| Cc1cc(Oc2c(F)cccc2F)ncc1-n1ncc(C(=O)c2cc3cc(OCC(F)F)c(NS(=O)(=O)c4cccnc4)cc3[nH]2)c1N [Example 5-1-384, N-[2-[5-amino-1-[6-(2,6-difluorophenoxy)-4-methylpyridin-3-yl]pyrazole-4-carbonyl]-5-(2,2-difluoroethoxy)-1H-indol-6-yl]pyridine-3-sulfonamide] | 44 | 2.4 | 90 |  |  |  |
| Cc1cc(-n2ncc(C(=O)c3cc4cc(OC5CCN(C6CCCC6)CC5)c(-c5ccccc5C(F)(F)F)cc4[nH]3)c2N)ccc1Oc1ccccc1F [Example 5-1-385, (5-amino-1-(4-(2-fluorophenoxy)-3-methylphenyl)-1H-pyrazol-4-yl)(5-((1-cyclopentylpiperidin-4-yl)oxy)-6-(2-(trifluoromethyl)phenyl)-1H-indol-2-yl)methanone] | 390 | 3 | 2400 |  |  |  |
| Cc1cc(Oc2c(F)cccc2F)ncc1-n1ncc(C(=O)c2cc3cc(OC4CCN(C5CCCC5)CC4)c(-c4ccccc4C(F)(F)F)cc3[nH]2)c1N [Example 5-1-387, [5-amino-1-[6-(2,6-difluorophenoxy)-4-methylpyridin-3-yl]pyrazol-4-yl]-[5-(1-cyclopentylpiperidin-4-yl)oxy-6-[2-(trifluoromethyl)phenyl]-1H-indol-2-yl] methanone] | 29 | 3.1 | 190 |  |  |  |
| Cc1cc(Oc2c(F)cccc2F)ncc1-n1ncc(C(=O)c2cc3cc(OC4CCN(C5CS(=O)(=O)C5)CC4)c(-c4ccccc4C(F)(F)F)cc3[nH]2)c1N [Example 5-1-388, [5-amino-1-[6-(2,6-difluorophenoxy)-4-methylpyridin-3-yl]pyrazol-4-yl]-[5-[1-(1,1-dioxothietan-3-yl)piperidin-4-yl]oxy-6-[2-(trifluoromethyl)phenyl]-1H-indol-2-yl] methanone] | 47 | 4.2 | 220 |  |  |  |
| Cc1cc(Oc2ccccc2F)ccc1-n1ncc(C(=O)c2cc3cc(F)c(NS(=O)(=O)C4CCOCC4)cc3[nH]2)c1N [Example 5-1-389, N-[2-[5-amino-1-[4-(2-fluorophenoxy)-2-methylphenyl]pyrazole-4-carbonyl]-5-fluoro-1H-indol-6-yl]oxane-4-sulfonamide] | 18 | 1.4 | 24 |  |  |  |
| Cc1cc(Oc2ccccc2F)ccc1-n1ncc(C(=O)c2cc3cc(OC(F)F)c(NS(=O)(=O)C4CCOCC4)cc3[nH]2)c1N [Example 5-1-390, N-[2-[5-amino-1-[4-(2-fluorophenoxy)-2-methylphenyl]pyrazole-4-carbonyl]-5-(difluoromethoxy)-1H-indol-6-yl]oxane-4-sulfonamie] | 25 | 1.9 | 44 |  |  |  |
| Cc1cc2cc(C(=O)c3cnn(-c4ccc(Oc5ccccc5F)cc4C)c3N)[nH]c2cc1N1C(=O)NC2(CCN(C3COC3)CC2)C1=O [Example 5-1-391, 3-(2-(5-amino-1-(4-(2-fluorophenoxy)-2-methylphenyl)-1H-pyrazole-4-carbonyl)-5-methyl-1H-indol-6-yl)-8-(oxetan-3-yl)-1,3,8-triazaspiro[4.5]decane-2,4-dione] | 5.5 | 1.3 | 11 |  |  |  |
| Cc1cc2cc(C(=O)c3cnn(-c4ccc(Oc5ccccc5F)cc4C)c3N)[nH]c2cc1N1C(=O)NC2(CCN(Cc3ccccc3)CC2)C1=O [Example 5-1-392, 3-[2-[5-amino-1-[4-(2-fluorophenoxy)-2-methylphenyl]pyrazole-4-carbonyl]-5-methyl-1H-indol-6-yl]-8-benzyl-1,3,8-triazaspiro[4.5] decane-2,4-dione] | 14 | 2.9 | 89 |  |  |  |
| Cc1cc2cc(C(=O)c3cnn(-c4ccc(Oc5ccccc5F)cc4C)c3N)[nH]c2cc1N1C(=O)NC2(CCN(C3COC3)C2)C1=O (stereo not drawn) [Example 5-1-393, 3-[2-[5-amino-1-[4-(2-fluorophenoxy)-2-methylphenyl]pyrazole-4-carbonyl]-5-methyl-1H-indol-6-yl]-7-(oxetan-3-yl)-1,3,7-triazaspiro [4.4]nonane-2,4-dione] | 4.6 | 1 | 9.8 |  |  |  |
| Cc1cc2cc(C(=O)c3cnn(-c4ccc(Oc5ccccc5F)cc4C)c3N)[nH]c2cc1N1C(=O)NC2(CCN(Cc3ccccc3)C2)C1=O (stereo not drawn) [Example 5-1-394, 3-[2-[5-amino-1-[4-(2-fluorophenoxy)-2-methylphenyl]pyrazole-4-carbonyl]-5-methyl-1H-indol-6-yl]-7-benzyl-1,3,7-tnazaspiro[4.4] nonane-2,4-dione] | 21 | 2.9 | 93 |  |  |  |
| Cc1cc(Oc2c(F)cccc2F)ncc1-n1ncc(C(=O)c2cc3cc(C4CC4)c(NS(=O)(=O)C4CCOCC4)cc3[nH]2)c1N [Example 5-1-395, N-[2-[5-amino-1-[6-(2,6-difluorophenoxy)-4-methylpyridin-3-yl]pyrazole-4-carbonyl]-5-cyclopropyl-1H-indol-6-yl]oxane-4-sulfonamide] | 66 | 4.8 | 210 |  |  |  |
| Cc1cc(Oc2ccccc2F)ncc1-n1ncc(C(=O)c2cc3cc(C4CC4)c(NS(=O)(=O)C4CCOCC4)cc3[nH]2)c1N [Example 5-1-396, N-[2-[5-amino-1-[6-(2-fluorophenoxy)-4-methylpyridin-3-yl]pyrazole-4-carbonyl]-5-cyclopropyl-1H-indol-6-yl]oxane-4-sulfonamide] | 68 | 3.6 | 230 |  |  |  |
| Cc1cc(Oc2ccccc2F)ccc1-n1ncc(C(=O)c2cc3cc(C4CC4)c(NS(=O)(=O)C4CCOCC4)cc3[nH]2)c1N [Example 5-1-397, N-[2-[5-amino-1-[4-(2-fluorophenoxy)-2-methylphenyl]pyrazole-4-carbonyl]-5-cyclopropyl-1H-indol-6-yl]oxane-4-sulfonamide] | 31 | 1.8 | 90 |  |  |  |
| Cc1cc(Oc2c(F)cccc2F)ncc1-n1ncc(C(=O)c2cc3cc(F)c(N4CC(C)(C)NS4(=O)=O)cc3[nH]2)c1N [Example 5-1-398, [5-amino-1-[6-(2,6-difluorophenoxy)-4-methylpyridin-3-yl]pyrazol-4-yl]-[6-(4,4-dimethyl-1,1-dioxo-1,2,5-thiadiazolidin-2-yl)-5-fluoro-1H-indol-2-yl]methanone] | 20 | 2.4 | 95 |  |  |  |
| Cc1cc(Oc2c(F)cccc2F)ncc1-n1ncc(C(=O)c2cc3cc(F)c(N4CC5(CCCC5)NS4(=O)=O)cc3[nH]2)c1N [Example 5-1-399, [5-amino-1-[6-(2,6-difluorophenoxy)-4-methylpyridin-3-yl]pyrazol-4-yl]-[6-(2,2-dioxo-2λ6-thia-1,3-diazaspiro[4.4]nonan-3-yl)-5-fluoro-1H-indol-2-yl]methanone] |  |  |  | 53 | 5.7 | 250 |
| Cc1cc(Oc2c(F)cccc2F)ncc1-n1ncc(C(=O)c2cc3cc(F)c(N4CC5(CCOCC5)NS4(=O)=O)cc3[nH]2)c1N [Example 5-1-400, [5-amino-1-[6-(2,6-difluorophenoxy)-4-methylpyridin-3-yl]pyrazol-4-yl]-[6-(2,2-dioxo-8-oxa-2λ6-thia-13-diazaspiro[4.5]decan-3-yl)-5-fluoro-1H-indol-2-yl]methanone] |  |  |  | 14 | 2.1 | 76 |
| Cc1cc(Oc2ccccc2F)ncc1-n1ncc(C(=O)c2cc3cc(OC(F)F)c(NS(=O)(=O)C4CCOCC4)cc3[nH]2)c1N [Example 5-1-401, N-[2-[5-amino-1-[6-(2-fluorophenoxy)-4-methylpyridin-3-yl]pyrazole-4-carbonyl]-5-(difluoromethoxy)-1H-indol-6-yl]oxane-4-sulfonamide] |  |  |  | 41 | 2.5 | 140 |
| Cc1cc(Oc2ccccc2F)ncc1-n1ncc(C(=O)c2cc3cc(OC(F)F)c(N4C(=O)NC(C)(C)C4=O)cc3[nH]2)c1N [Example 5-1-402, 3-[2-[5-amino-1-[6-(2-fluorophenoxy)-4-methylpyridin-3-yl]pyrazole-4-carbonyl]-5-(difluoromethoxy)-1H-indol-6-yl]-5,5-dimethylimidazolidine-2,4-dione] |  |  |  | 8.2 | 1.8 | 63 |
| Cc1cc(Oc2ccccc2F)ccc1-n1ncc(C(=O)c2cc3cc(F)c(N4CC5(CCOCC5)NS4(=O)=O)cc3[nH]2)c1N [Example 5-1-403, [5-amino-1-[4-(2-fluorophenoxy)-2-methylphenyl]pyrazol-4-yl]-[6-(2,2-dioxo-8-oxa-2λ6-thia-1.3-diazaspiro[4.5]decan-3-yl)-5-fluoro-1H-indol-2-yl]methanone] |  |  |  | 8.6 | 0.98 | 88 |
| Cc1cc2cc(C(=O)c3cnn(-c4cnc(Oc5c(F)cccc5F)cc4C)c3N)[nH]c2cc1N1C(=O)NC2(COC2)C1=O [Example 5-1-404, 7-[2-[5-amino-1-[6-(2,6-difluorophenoxy)-4-methylpyridin-3-yl]pyrazole-4-carbonyl]-5-methyl-1H-indol-6-yl]-2-oxa-5,7-diazaspiro[3.4] octane-6,8-dione] |  |  |  | 2.6 | 1.7 | 48 |
